Measured values reported in publication PMC4104029, “Mechanism of Action of Compound-13: An α1-Selective Small Molecule Activator of AMPK” (Chemistry & Biology, 2014).
pEC50: −log10 of the molar value.

Legend:
human AMPK = system: human AMPK; parameters: method as in Gómez-Galeno et al., 2010; settings: isoform combination not specified; ref Gómez-Galeno et al., 2010; read-out: half-maximal effective concentration (EC50); cited from earlier work
AMP deaminase-1 = assay: AMPD1 assay; assay type: biochemical, chicken; settings: concentrations up to 100 μM; data not shown
Text: (§1) Supplemental Experimental Procedures:
(§2) Materials. Compounds 2 and 13 were synthesised by PeakDale Molecular and Natalia Shpiro (MRC-PPU, Dundee), respectively, as described previously (Gomez-Galeno, et al., 2010).
(§3) A769662 was from Selleck Chemicals and AICAR from Toronto Research Chemicals. Mouse FBP1, PYGM and PFK1 (muscle isoform) were cloned, expressed and purified from E.coli using standard techniques. AMPD was purified from chicken muscle (Smiley, et al., 1967).
(§4) PP2Cα expressed in E.coli was from the Division of Signal Transduction Therapy (DSTT, Dundee). Peptides were synthesised by GL Biochem (Shanghai). [γ-32P]-ATP, [1-14C]-acetic acid and [9,10-3H(N)]-palmitic acid were from PerkinElmer. pS79 ACC1 (#3661), ACC1 […]
(§5) antibodies were purchased from Cell Signaling Technology. Anti-AMPKα1 (07-350) and AMPKα2 (07-363) used for immunoblotting were from Merck-Millipore. Anti-AMPKγ1 was from Origene (clone Y308). Anti-AMPKγ2 was from Epitomics (S1562). Anti-tubulin (B-5-1-2), anti-FLAG (F7425) and anti-FLAG M2 agarose were from Sigma. Anti-HA (HA.11) was from Covance Research Products. AMPKα1/2 antibodies used for immunoprecipitation kinase assays were described previously (Sakamoto, et al., 2006). […]
(§6) AMPK preparations. […] Isolated human AMPKα subunits were expressed as N-terminal GST-fusions in E.coli and activated as described for heterotrimeric complexes. […]

[1] = molecular target: T1, muscle glycogen phosphorylase b (Mus musculus, UniProt Q9WUB3); assay: Glycogen phosphorylase assay; assay type: biochemical; settings: concentrations up to 100 μM; data not shown
T1 construct: made in house; host or cells: E. coli
Text: as §1, §2, §3, §4, §5, §6

α1-KO hepatocytes = assay: Lipid synthesis, [1-14C]acetate incorporation; assay type: cell-based, mouse; settings: 1 μM
Description: Figure 6 C13 Is Relatively Selective for α1 Complexes in Primary Hepatocytes (A) Hepatocytes from WT, AMPKα1^−/−, and AMPKα2^−/− mice were treated with the indicated concentrations of C13 and labeled with [1-^14C]acetate for 3 hr. Rates of fatty acid and sterol synthesis were estimated from incorporation into saponifiable (upper graphs) and nonsaponifiable (lower graphs) lipids. Results are expressed as percentage WT vehicle and represent the mean ± SD for three independent experiments. (B) Mouse hepatocytes were incubated with the indicated concentrations of C13 for 3 hr, and lysates were analyzed using western blotting with the indicated antibodies.
Lipid synthesis was determined by labeling adherent cultures of primary hepatocytes with [1-^14C]acetate. After overnight culture, hepatocytes (5 × 10^5) were washed with warm PBS and allowed to rest for 3 hr in fresh M199. Cells were treated with vehicle (0.1% DMSO) or the indicated compounds and labeled with 1 mCi⋅mmol^−1 [1-^14C]acetate for 3 hr. […] Lipogenesis in hepatocytes from AMPKβ1/β2-KO mice was determined in media containing [^3H]acetate (0.2 mCi⋅mmol^−1). After 4 hr labeling, total lipids were extracted using the method of [Bligh and Dyer (1959)], and incorporated [^3H] was determined by scintillation counting. The results are expressed as micromoles acetate incorporated per gram-hour.

T1 sequence (Q9WUB3 whole entry): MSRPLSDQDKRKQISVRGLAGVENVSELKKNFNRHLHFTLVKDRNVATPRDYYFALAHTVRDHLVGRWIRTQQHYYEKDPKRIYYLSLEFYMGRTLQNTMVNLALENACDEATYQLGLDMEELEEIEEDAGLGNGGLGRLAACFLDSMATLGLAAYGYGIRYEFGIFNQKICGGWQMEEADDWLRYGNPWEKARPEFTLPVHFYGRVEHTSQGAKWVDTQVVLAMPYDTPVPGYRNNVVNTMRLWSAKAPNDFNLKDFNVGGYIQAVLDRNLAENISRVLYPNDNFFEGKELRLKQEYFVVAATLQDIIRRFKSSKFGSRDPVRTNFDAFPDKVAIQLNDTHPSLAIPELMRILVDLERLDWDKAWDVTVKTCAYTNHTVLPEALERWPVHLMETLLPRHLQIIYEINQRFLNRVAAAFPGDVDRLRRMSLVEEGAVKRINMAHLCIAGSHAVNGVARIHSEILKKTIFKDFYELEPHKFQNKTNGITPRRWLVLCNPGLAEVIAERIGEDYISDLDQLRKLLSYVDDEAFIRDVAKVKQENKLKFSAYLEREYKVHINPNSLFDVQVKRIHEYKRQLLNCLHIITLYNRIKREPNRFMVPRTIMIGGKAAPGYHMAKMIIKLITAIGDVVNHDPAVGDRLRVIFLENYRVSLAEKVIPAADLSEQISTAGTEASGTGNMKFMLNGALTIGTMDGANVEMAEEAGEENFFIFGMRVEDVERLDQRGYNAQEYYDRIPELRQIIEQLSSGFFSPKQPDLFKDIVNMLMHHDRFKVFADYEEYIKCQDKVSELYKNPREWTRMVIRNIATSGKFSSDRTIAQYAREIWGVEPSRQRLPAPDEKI

| Structure (SMILES) | pEC50 (human AMPK) | effect on enzyme activity (AMP deaminase-1) | effect on enzyme activity [1] | effect on synthesis of saponifiable and nonsaponifiable lipids (α1-KO hepatocytes) |
| --- | --- | --- | --- | --- |
| O=P(O)(O)c1ccc(-c2cc(O)on2)o1 [Compound C2, 5-(5-hydroxyl-isoxazol-3-yl)-furan-2-phosphonic acid] | 8.20 | None of these enzymes were affected | None of these enzymes were affected |  |
| CC(C)C(=O)OCOP(=O)(OCOC(=O)C(C)C)c1ccc(C2=NOC(=O)C2)o1 [Compound C13] |  |  |  | no effect |
